Patent publication US5543410A, “Pharmacological use of phthaloylhydrazide derivatives; combination and application thereof” (L.I.M.A.D. Limited, priority 1993, dated 1996)
Where two headings read alike, the source gives them in different places.

How the values were obtained:
[1] = tested on: cancer affecting the left breast, metastatic tumors
Method: During subsequent years, they had undergone radiation therapy and chemotherapy on multiple occasions on account of metastatic tumors.
On account of the severity of the patient's condition, intramuscular administration of the drug in 100 mg doses every two days was initiated.

viral hepatitis B = tested on: viral hepatitis B
Method: Rectal suppositories containing the drug, which was to be administered in doses of 100 mg per day for ten days, were prescribed for this patient.

neutrophils = conditions: in vivo (whole blood), NST test
[2] = tested on: tumor necrosis factor (TNF)
[3] = in vivo
psoriasis = conditions: 2 to 5 mg/kg
AIDS = tested on: AIDS
Method: Treatment began with intramuscular administration of 100 mg doses of the drug, once daily.
The daily dosage of the drug was then increased to 400 mg.

[4] = tested on: Salmonella typhinurium endotoxin
Method: These experiments were performed upon rabbits. Salmonella typhinurium endotoxin which had been purified by Bolvin's method was used in doses of 1 mg/kg according to body weight.
During the second series of experiments, the drug was administered intravenously in doses of 15 mg/kg according to body weight when clinical manifestations appeared (thirty to forty minutes after the commencement of the experiment). […] During the third series of experiments, the drug was administered five minutes after endotoxin inoculation.

[5] = tested on: TA 100, TA 102, and TA 97 S. typhi strains; test: Ames' bacterial mutagenicity test; conditions: 0.01 mg/ml to 2 mg/ml, rat liver microsome activation
[6] = passage through living membranes / microbial membranes
[7] = tested on: perineal cutaneous melanoma
Method: Localized excision of the tumor was performed, and the group of lymph nodes in the left inguinal region was removed.
This phenomenon was indicative of the onset of recurrence of the tumor. Intramuscular administration of the drug in 100 mg doses was provided on alternating days.
Beginning on the twentieth day, the drug was administered in 100 mg intramuscular doses every day.

[8] = tested on: non-specific ulcerative colitis and Crohn's disease
Method: These patients complained of periodic worsening of their symptoms over periods of three to five years.
100 mg per day of the drug was administered intravenously to these patients for three days.
On subsequent days, intramuscular administration of the drug was provided once daily, along with a 100 mg rectal suppository.

metabolic products = format: in vivo; conditions: in vivo; read-out: fraction of compound decomposed into 5-aminophthalic acid, oxygen, and nitrogen
anal fissures = tested on: anal fissures
Method: Similarly, anal fissures have represented a difficult problem for modern medicine to resolve. In this instance, the inflammatory component is associated with a morphological defect.
The drug was administered to this group of patients in the form of suppositories, in doses of 100 mg every twelve hours, during a five-day period.

[9] = tested on: piglets affected by dysentery; test: dysentery in piglets; format: in vivo
Method: Experiments were performed with piglets weighing from 30 to 40 kgs, which were affected by dysentery.
Nevertheless, symptoms reappeared six to seven hours later in one group of animals. This factor rendered repeated administration of the drug necessary.

[10] = tested on: dermatitis of unknown etiology
Method: The patient was treated for fourteen days.
The affected cutaneous areas were treated three times daily with a water-soluble emulsion containing 30 mg of the drug, and, on alternating days, suppositories containing 50 mg of the drug (5 mg/kg according to weight) were administered rectally.

[11] = tested on: inflammation of the mucosae, chronic tonsillitis; test: inflammation of the mucosae / chronic tonsillitis (gargling); format: in vivo; conditions: gargling solution
macrophages = conditions: in vitro and in vivo; SV-40 affected cancer cells, glioma cultures
[12] = tested on: acute purulent inflammation (wounds) caused by E. coli and S. aureus; conditions: single administration
Method: (§1) In models corresponding to acute purulent inflammation (wounds) caused by inoculation of a suspension of pathogenic microbes, such as E. coli and S. aureus, pentane production within air exhaled by the respective animals was measured.

[13] = model systems (micellar phase); times less
Method: as §1

[14] = tested on: peroxidation of blood plasma
Method: as §1

pregnant female rats = conditions: 60 mg/kg single dose, intraperitoneal
Method: Tests pertaining to teratogenicity and embryotoxicity were performed upon fifty-eight pregnant female rats. A single dose (60 mg/kg) was injected intraperitoneally on the first, third, seventh, tenth, fourteenth, or seventeenth days of gestation. These rats were decapitated on the twenty-first day of gestation, and uteri and fetuses were examined.

[15] = tested on: mice exposed to carbon tetrachloride; conditions: 10 to 20 mg/kg; control group 65 percent
[16] = tested on: convulsions caused by Corazolum and strychnine; conditions: 30 and 60 mg/kg
[17] = pharmacokinetics, plasma half-life; format: in vivo
[18] = 100 mg per day rectal suppositories
[19] = 15 mg/kg intravenous, when clinical manifestations appeared
[20] = 100 mg intramuscular on alternating days
[21] = after five to six days of treatment

Text for proctosigmoiditis: Treatment was provided for nine patients affected by proctosigmoiditis; their ages were between forty and fifty-five years. These patients had complained of irregular defecation, protrusion of the mucosae from the anus, and minor pain in the ileum, on the left side.
During visual examination of the intestine, it was observed that the mucosae of the rectal and sigmoid portions of the colon were affected by edema. In addition, images of the capillary network were blurred, and a fibrous film was present within limited segments. The drug was administered to these patients in the form of rectal suppositories, in doses of 100 mg per day, subsequent to enemas.

Nc1cccc2c(=O)[nH][nH]c(=O)c12
intensity of pain ([1]; after first injection, 100 mg intramuscular every two days): the intensity of their pain decreased significantly | general condition ([1]; alternate days intramuscular): a steady improvement in the patient's general condition was observed | urine, urination, perspiration ([1]; in vivo): their urine became more dense, frequent urination began, and their perspiration acquired a rather foul odor | vomiting, stools ([1]; in vivo): vomiting began, and the patient's stools were malodorous | edema ([1]; thirteenth and fourteenth days): had diminished significantly | condition and appetite ([1]; twentieth day): the patient's condition improved, and their appetite was restored | time to improvement (lethargy, pain disappeared) (viral hepatitis B; [18]): third | time to normal biochemical blood data (viral hepatitis B; [18]): tenth | chronic development of the process (viral hepatitis B; six subsequent months): absence of chronic development of the process | bile pigments reaction (viral hepatitis B; tenth day): negative | ultrasound examination of liver (viral hepatitis B; tenth day): No pathological conditions affecting the liver were observed | symptoms and hepatic functions (viral hepatitis B; volunteers, 2 to 5 mg/kg per day, initial phase of chronic stage): symptoms were eliminated and previously impaired hepatic functions were restored | rate at which superoxide radicals formed (neutrophils): an increase in the rate at which superoxide radicals formed | action of TNF in mutated cells [2]: intensifies the action of the tumor necrosis factor (TNF) in mutated cells | CL renal [3]: 50 to 80 mL/min | development of psoriasis (psoriasis): did not substantially influence the development of psoriasis | therapeutic effects (AIDS; 100 mg intramuscular once daily, three days): no therapeutic effects had been observed | complications of AIDS (AIDS; 5 to 15 mg/kg daily, extended period): significant prevention or reduction of complications | further symptoms (AIDS; continued daily administration): further symptoms of the disease did not appear | therapeutic action (AIDS; daily dose doubled): still not observable | effectiveness of standard doses (AIDS; standard doses for inflammatory diseases): limited effectiveness | diarrhea [4, 19]: diarrhea ceased completely | time to reduction of intoxication symptoms [4, 19]: five to ten | alleviation of intoxication symptoms and diarrhea ([4]; 25 mg/kg): complete alleviation of intoxication symptoms and diarrhea | intoxication symptoms (conclusion) ([4]; 15 to 25 mg/kg): prevent or eliminate intoxication symptoms | alleviation of symptoms ([4]; drug five minutes after endotoxin, third series): partial alleviation of symptoms | inhibitory or mutagenic activity [5]: did not possess inhibitory or mutagenic activity | time until symptoms and pain disappeared (proctosigmoiditis; [18]): one | complaints (proctosigmoiditis; by the seventh day): the patients no longer complained of symptoms | rectosigmoidoscopy finding (proctosigmoiditis; checkups): renewal of normal conditions was observed within the rectal mucosae and within the sigmoid colon | passage through the hydrophobic phase of living membranes [6]: easily passing through the hydrophobic phase of living membranes | infiltration in the region of the postoperative scar ([7]; 100 mg intramuscular every day, checkup thirty days later): disappearance of infiltration in the region of the postoperative scar was observed | abnormal salivation [7, 20]: On the third day after the commencement of treatment, abnormal salivation began | vomiting and diuresis [7, 20]: vomiting occurred on the fourth day, along with an increase in diuresis | cessation of symptoms (salivation, vomiting, diuresis) ([7]; in vivo): gradually ceased on the thirteenth and fourteenth days | time until abdominal and joint pain lessened ([8]; 100 mg per day intravenous): Thirty | frequency of defecation ([8]; first three days): frequency of defecation was reduced | frequency of defecation ([8]; fourteenth day): once or twice | rectosigmoidoscopy finding ([8]; in vivo): did not reveal the presence of pus or blood, although traces of an inflammatory process were observed within mucous membranes | frequency of defecation ([8]; sixth day): two or three | pain and skin eruptions ([8]; sixth day): They were no longer experiencing pain, their skin eruptions had disappeared | metabolised (metabolic products): > 90% | erythema at the site of administration (guinea pigs; even large doses): Erythema was not encountered | indications of allergies (guinea pigs; subcutaneous or oral administration): no indications of allergies were observed | time until pain ceased (anal fissures; 100 mg suppositories every twelve hours): twenty to thirty | recurrences (anal fissures; [21]): Recurrences were not observed | regeneration of the mucosae (anal fissures; [21]): regeneration of the mucosae was visually observable | defecation and sphincter spasms (anal fissures; after the third suppository): defecation became painless, and spasms affecting the sphincter diminished | recovery (anal fissures; by the fifth day): the patients had practically recovered | other symptoms (anal fissures; rectal administration): other symptoms were also eliminated by the end of the first day of treatment | time to significant alleviation of the pain syndrome (anal fissures; rectal administration): twenty to forty | effectiveness in alleviating diarrhea ([9]; 50 mg/kg, fourth series): limited effectiveness in alleviating diarrhea | therapeutic effect ([9]; 10, 25, and 50 mg/kg, third series): relatively insignificant | reappearance of dysentery symptoms ([9]; 20 and 50 mg/kg, second series): symptoms of dysentery reappeared at the end of the first day | instances with therapeutic effects ([9]; 20 and 50 mg/kg, sixteen animals, second series): six | time to completed epithelization ([10]; 30 mg emulsion three times daily, 50 mg suppositories on alternating days): fourteenth | affected cutaneous areas ([10]; after the second day): began to become drier | inflammation of the mucosae [11]: favorable results were obtained | transformation of macrophages into killer cells (macrophages): transformation of a certain portion of macrophages into killer cells | expansion of malignant tumors (malignant tumors; increasing doses and frequency): ensures inhibition of the expansion of malignant tumors | tumor dimensions and general condition (malignant tumors; three patients): favorable results represented by reduction of the dimensions of tumors and by an improvement in their general condition | effect in combination with radiation therapy (malignant tumors; total dose of 60 to 90 g): the effect upon its action is intensified | pentane level attained [12]: until a normal level was attained | time to reduction in pentane in exhaled air [12]: thirty to sixty | antioxidant effectiveness less than previously identified antioxidants [13]: thirty to fifty | antioxidant effectiveness versus known antioxidants ([14]; blood plasma): significantly superior to known antioxidants such as dibunol, alphatocopherol, and superoxydismutaze (SOD) | increase in retardation constant for peroxidation of blood plasma ([14]; two to five minutes after administration): ten to twelve | fetal abnormalities (pregnant female rats): No fetal abnormalities were found | mortality rate [15]: 14% | prevention of convulsions [16]: did not prevent convulsions | duration of activity in hydrophobic phase of living membranes ([17]; in vivo): remains active for several hours | half-life ([17]; intramuscular and rectal): forty to sixty | half-life within blood plasma ([17]; intravenous): five to fifteen
